From patent EP4768499A1, “MACROCYCLIC PEPTIDE COMPOUND HAVING CELL MEMBRANE PERMEABILITY AND METABOLIC STABILITY, AND LIBRARY CONTAINING SAME” (Chugai Seiyaku Kabushiki Kaisha, priority 2023, dated 2025)
Starred links: 1 amine or outer side, 2 acyl side, 3 side chain; linkers in the order of their positions; H or OH if unused. Positions of bridges follow the written chain, without caps; N, C: chain ends. Non-standard residues stand in square brackets, D forms with d. Residues, ends and D or L forms follow the SMILES beside them. *: point of attachment. NMeF = CN[C@@H](Cc1ccccc1)C(=O)O; NMeGABA = CN(CCCC(=O)[*:2])[*:1]; NMeI = CC[C@H](C)[C@H](NC)C(=O)O; hPhe = N[C@@H](CCc1ccccc1)C(=O)O; NMeβAla = CN(CCC(=O)[*:2])[*:1]; NMeD = CN[C@@H](CC(=O)O)C(=O)O; NMeL = CN[C@@H](CC(C)C)C(=O)O; NMeV = CN[C@H](C(=O)O)C(C)C; d(β3hA) = C[C@@H](N)CC(=O)O; NMeAbu = CC[C@H](NC)C(=O)O; NMeA = CN[C@@H](C)C(=O)O; Piperidide = C1CCN(*)CC1; Abu = CC[C@H](N)C(=O)O; Sar = CNCC(=O)O; tBu = CC(C)(C)*

What was measured:
[1] = Metabolic stability test: liver microsomal stability assay; type: in vitro ADME, mouse; settings: mouse liver microsomes 0.5 mg protein/mL, compound 1 µM; for microsomal CLint at 1 µM: male, pH 7.4, presence of NADPH, read-out: Mouse Hepatic Microsome CLh,int NADPH(+); for Mouse Hepatic Microsome CLh,int NADPH(-): absence of NADPH
Protocol: Under the presence and absence of NADPH, a microsome solution prepared to a concentration of 0.5 mg protein/mL using 100 mM phosphate buffer (pH 7.4) with mouse liver microsomes (male, Corning Incorporated, USA) and the compound at a concentration of 1 µM were subjected to a metabolic reaction for 22 minutes, 44 minutes, or 66 minutes. Protein removal processing was performed over time using acetonitrile, and the remaining amount of unchanged compound was analyzed using LCMS to calculate the intrinsic hepatic clearance (CLh, int) (Table 6).

[2] = Membrane permeability test using Caco-2 cells with preincubation; type: in vitro ADME; settings: Caco-2; preincubation 20 to 24 hours; Apical FaSSIF/HBSS pH 6.0, Basal HBSS 4% BSA pH 7.4; 180 minutes; read-out: Caco2 Papp
Protocol: (§1) The permeability coefficient (Caco-2 Papp (cm/sec)) is calculated using a numerical expression 1. [Expression 1] Papp = (1)/(C1 (0) × S) × (dQ)/(dt) [formula] dQ/dt represents the permeation rate of drug (the amount of drug appearing on the Basal side per unit time), S represents the total surface area of cells, and C1(0) represents the concentration of drug added on the Apical side.
(§2) Using a mixed medium of FaSSIF containing 1% DMSO and DMEM as the apical medium, and DMEM as the basal medium, Caco-2 cells and peptide compounds are preincubated for 20 to 24 hours under conditions of 5% CO2, 37°C, and 80 rpm. Afterward, the culture medium on the Apical side and the Basal side are aspirated and washed, the peptide compound was added to a FaSSIF/HBSS buffer solution containing 1% DMSO (1% DMSO) (pH 6.0) at the Apical side, a HBSS buffer solution containing 4% BSA (pH 7.4) was added to the Basal side, and measurement of membrane permeability is started. Each well is shaken under 5% CO2 at 37°C and 80 rpm, and at 180 minutes after the start of shaking, a sample on the Basal side is collected. The amount of peptide compounds in the sample was measured using LCMS, and the membrane permeability coefficient was calculated from the permeation amount (Table 7). When calculating the membrane permeability coefficient (Papp) from the permeation amount, the following expression can be used. Papp = (dQ)/(dt) × (1)/(C1 (0) × S) [formula]
(§3) dQ/dt represents the permeation rate of drug (the amount of drug appearing on the Basal side per unit time), C1(0) represents the concentration of drug added on the Apical side, and S represents the total surface area of cells.

Caco-2 cells = assay: as above; type: in vitro ADME; settings: preincubation 20 to 24 hours; for Caco2 Papp (10^-6 cm/sec): Caco-2 cells, apical FaSSIF/HBSS 1% DMSO pH 6.0, basal HBSS 4% BSA pH 7.4, basal sample at 180 minutes; for Caco2 Papp: Apical FaSSIF/HBSS pH 6.0, Basal HBSS 4% BSA pH 7.4, 180 minutes
Protocol: as §1, §2, §3

SMILES | microsomal CLint at 1 µM [1] [µL/min/mg] | Mouse Hepatic Microsome CLh,int NADPH(-) [1] [µL/min/mg Protein] | Papp A→B [2] [×10⁻⁶ cm/s] | Caco2 Papp (10^-6 cm/sec) (Caco-2 cells) | Caco2 Papp (Caco-2 cells)
CC[C@H](C)[C@H]1C(=O)N[C@@H](Cc2ccccc2)C(=O)N2CCC[C@H]2C(=O)N(C)[C@@H](CC(C)C)C(=O)N[C@@H](COC(C)(C)C)C(=O)N(C)[C@@H](Cc2ccccc2)C(=O)N[C@@H]([C@@H](C)O)C(=O)N(C)[C@@H](CC)C(=O)N2CCC[C@H]2C(=O)N(C)[C@@H](CC(C)C)C(=O)N(C)[C@@H](C(C)C)C(=O)N[C@H](C(=O)N2CCCCC2)CC(=O)N(C)CCCC(=O)N(C)[C@@H](CC(C)C)C(=O)N1C [pd001] ([NMeGABA][NMeL][NMeI]FP[NMeL]S(tBu)[NMeF]T[NMeAbu]P[NMeL][NMeV]D-Piperidide; lactam N-14) | 34.2 | 29.6 | 0.94 | 0.94 10^-6 cm/sec | –
CC[C@H](C)[C@@H]1NC(=O)[C@@H]2CCCN2C(=O)[C@H](CC(C)C)N(C)C(=O)[C@H](Cc2ccccc2)N(C)C(=O)[C@H]([C@@H](C)CC)N(C)C(=O)[C@H]([C@@H](C)O)NC(=O)[C@H](Cc2ccccc2)N(C)C(=O)[C@H](CC)N(C)C(=O)[C@H](C(C)C)NC(=O)[C@H](CC)N(C)C(=O)[C@H](CC(C)C)N(C)C(=O)[C@H](C)N(C)C(=O)C[C@@H](C(=O)N2CCCCC2)NC(=O)[C@H](C(C)C)N(C)C1=O [pd002] ([NMeA][NMeL][NMeAbu]V[NMeAbu][NMeF]T[NMeI][NMeF][NMeL]PI[NMeV]D-Piperidide; lactam N-14) | 34.2 | 30.1 | 0.39 | 0.39 10^-6 cm/sec | –
CC[C@H](C)[C@H]1C(=O)N[C@@H]([C@@H](C)O)C(=O)N(C)CC(=O)N(C)[C@@H](CC(C)C)C(=O)N(C)[C@@H](Cc2ccccc2)C(=O)N[C@H](C(=O)N2CCCCC2)CC(=O)N(C)[C@@H](C)C(=O)N[C@@H](CC(C)C)C(=O)N(C)[C@@H](Cc2ccccc2)C(=O)N(C)CCC(=O)N(C)[C@@H](CC(C)C)C(=O)N[C@@H](CC(C)C)C(=O)N(C)[C@@H](C)C(=O)N(C)[C@@H](CC)C(=O)N1C [pd003] ([NMeA]L[NMeF][NMeβAla][NMeL]L[NMeA][NMeAbu][NMeI]T[Sar][NMeL][NMeF]D-Piperidide; lactam N-14) | 17.9 | 19.0 | 0.27 | 0.27 10^-6 cm/sec | –
CC[C@@H]1NC(=O)[C@H]([C@@H](C)CC)NC(=O)[C@H](Cc2ccccc2)N(C)C(=O)[C@H](CC(C)C)N(C)C(=O)[C@H](CC(C)C)NC(=O)CCN(C)C(=O)C[C@@H](C(=O)N2CCCCC2)NC(=O)[C@H](C(C)C)NC(=O)[C@H](CC(C)C)N(C)C(=O)[C@H](C)N(C)C(=O)[C@H](C(C)C)NC(=O)[C@H](CC(C)C)N(C)C(=O)[C@H](COC(C)(C)C)NC(=O)[C@H](Cc2ccccc2)N(C)C1=O [pd015] ([NMeβAla]L[NMeL][NMeF]I[Abu][NMeF]S(tBu)[NMeL]V[NMeA][NMeL]VD-Piperidide; lactam N-14) | 32.5 | 26.2 | – | 0.04 10^-6 cm/sec | 0.04 10^-6 cm/sec
CC[C@@H]1NC(=O)[C@H](CC(C)C)N(C)C(=O)[C@H](COC(C)(C)C)NC(=O)[C@H](Cc2ccccc2)N(C)C(=O)[C@H](CC)NC(=O)[C@H](Cc2ccccc2)N(C)C(=O)[C@H](C)N(C)C(=O)[C@H](CC(C)C)N(C)C(=O)[C@H](CC(C)C)NC(=O)CCCN(C)C(=O)C[C@@H](C(=O)N2CCCCC2)NC(=O)[C@H](CC(C)C)N(C)C(=O)[C@H](C(C)C)NC(=O)[C@H](C)N(C)C1=O [pd016] ([NMeGABA]L[NMeL][NMeA][NMeF][Abu][NMeF]S(tBu)[NMeL][Abu][NMeA]V[NMeL]D-Piperidide; lactam N-14) | 49.9 | 32.9 | – | 0.47 10^-6 cm/sec | 0.47 10^-6 cm/sec
CC[C@@H]1NC(=O)CCN(C)C(=O)C[C@@H](C)NC(=O)[C@H](CC(C)C)N(C)C(=O)[C@H]([C@@H](C)O)NC(=O)[C@H](C)N(C)C(=O)[C@H]([C@@H](C)CC)NC(=O)[C@H](CCc2ccccc2)NC(=O)[C@H](CC(C)C)N(C)C(=O)[C@H](C)N(C)C(=O)[C@H](Cc2ccccc2)N(C)C(=O)[C@@H]2CCCN2C(=O)[C@H]([C@@H](C)CC)NC(=O)[C@H](CC(C)C)N(C)C1=O [pd051] (cyclo([Abu][NMeL]IP[NMeF][NMeA][NMeL][hPhe]I[NMeA]T[NMeL][d(β3hA)][NMeβAla])) | 24.6 | 28.8 | – | 0.21 10^-6 cm/sec | 0.21 10^-6 cm/sec
CC[C@H](C)[C@H]1C(=O)N[C@@H](CC(C)C)C(=O)N(C)[C@@H](CC(C)C)C(=O)N(C)[C@@H](C(C)C)C(=O)N(C)[C@@H](C)C(=O)N[C@@H]([C@@H](C)O)C(=O)N(C)[C@@H](CC(C)C)C(=O)N[C@H](C)CC(=O)N(C)CCC(=O)N[C@@H](CCc2ccccc2)C(=O)N(C)[C@@H](CC(C)C)C(=O)N2CCC[C@H]2C(=O)N(C)[C@@H](Cc2ccccc2)C(=O)N(C)[C@@H](C)C(=O)N1C [pd060] (cyclo(L[NMeL][NMeV][NMeA]T[NMeL][d(β3hA)][NMeβAla][hPhe][NMeL]P[NMeF][NMeA][NMeI])) | 32.4 | 38.6 | – | 0.63 10^-6 cm/sec | 0.63 10^-6 cm/sec
CC[C@H](C)[C@@H]1NC(=O)[C@H]([C@@H](C)CC)N(C)C(=O)[C@@H](C)NC(=O)C[C@@H](C(=O)N2CCCCC2)N(C)C(=O)[C@H](C(C)C)NC(=O)[C@H](Cc2ccccc2)N(C)C(=O)[C@H](C(C)C)NC(=O)[C@H](CC(C)C)N(C)C(=O)[C@H](C)NC(=O)CN(C)C(=O)[C@H](CC(C)C)N(C)C(=O)[C@H](C(C)C)NC(=O)[C@H](C)N(C)C(=O)[C@H](Cc2ccccc2)N(C)C1=O [pd074] ([dA][NMeI]I[NMeF][NMeA]V[NMeL][Sar]A[NMeL]V[NMeF]V[NMeD]-Piperidide; lactam N-14) | 26.9 | 26.9 | – | 0.22 10^-6 cm/sec | 0.22 10^-6 cm/sec
CC[C@@H]1NC(=O)[C@H](CC(C)C)N(C)C(=O)[C@H](C)NC(=O)CN(C)C(=O)[C@H](CC(C)C)N(C)C(=O)CCN(C)C(=O)[C@H](Cc2ccccc2)N(C)C(=O)[C@H]([C@@H](C)CC)NC(=O)[C@H]([C@@H](C)CC)N(C)C(=O)[C@@H](C)NC(=O)C[C@@H](C(=O)N2CCCCC2)N(C)C(=O)[C@H](Cc2ccccc2)N(C)C(=O)[C@H](C(C)C)NC(=O)[C@H](C)N(C)C1=O [pd076] ([dA][NMeI]I[NMeF][NMeβAla][NMeL][Sar]A[NMeL][Abu][NMeA]V[NMeF][NMeD]-Piperidide; lactam N-14) | 10.9 | 18.2 | – | <0.10 10^-6 cm/sec | <0.10 10^-6 cm/sec
